Results as given in ChEMBL document CHEMBL1201862, “PubChem BioAssay data set” (2004).
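Dose response: 5 concentrations. Exposure: 48 h. Format: 96-well plates. Endpoint: linear interpolation; highest concentration if not reached. GI50 = concentration required for 50% inhibition of growth.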 Activity calls are given as the source filed them. Cut-off read from the data, not from the text of the source: active = GI50 up to about 1.1 µM and inactive = higher.

Assays:
Assay in all cases: NCI-60 cell line screen, 48 h
SF-295 = system: SF-295
HL-60 = system: HL-60
UACC-62 = system: UACC-62
EKVX = system: EKVX
ACHN = system: ACHN
HOP-62 = system: HOP-62
NCI-H522 = system: NCI-H522
SNB-75 = system: SNB-75
RXF 393 = system: RXF 393
MCF7 = system: MCF7
HCC 2998 = system: HCC 2998
MDA-N = system: MDA-N
SF-539 = system: SF-539
LOX IMVI = system: LOX IMVI
NCI-H226 = system: NCI-H226
SNB-19 = system: SNB-19
MDA-MB-231 = system: MDA-MB-231
MDA-MB-435 = system: MDA-MB-435
BT-549 = system: BT-549
OVCAR-4 = system: OVCAR-4

Measured: GI50

CC(=O)O[C@H]1C(=O)[C@@]2(C)[C@H]([C@H](OC(=O)c3ccccc3)[C@]3(O)C[C@H](OC(=O)[C@H](O)[C@@H](NC(=O)c4ccc(N)cc4)c4ccccc4)C(C)=C1C3(C)C)[C@]1(OC(C)=O)CO[C@@H]1C[C@@H]2O
inactive: OVCAR-4 > 31.8 µM
active: SF-295 0.135 µM | HL-60 < 0.005 µM | UACC-62 0.00815 µM | EKVX 0.959 µM | ACHN 0.711 µM | HOP-62 0.0253 µM | NCI-H522 < 0.005 µM | SNB-75 < 0.005 µM | RXF 393 0.0887 µM | MCF7 < 0.005 µM | HCC 2998 < 0.005 µM | MDA-N < 0.005 µM | SF-539 < 0.005 µM | LOX IMVI < 0.005 µM | NCI-H226 < 0.005 µM | SNB-19 0.00675 µM | MDA-MB-231 0.22 µM | MDA-MB-435 0.0158 µM | BT-549 0.0384 µM

CN(C)C(=O)CO/N=C1/C(=C2/C(=O)Nc3ccccc32)Nc2ccccc21
inactive: SF-295 39.9 µM | HL-60 > 100 µM | UACC-62 > 100 µM | EKVX > 100 µM | ACHN > 100 µM | HOP-62 18.7 µM | NCI-H522 > 100 µM | SNB-75 30.4 µM | RXF 393 17.7 µM | MCF7 > 100 µM | HCC 2998 > 100 µM | MDA-N > 100 µM | SF-539 39.3 µM | LOX IMVI > 100 µM | NCI-H226 > 100 µM | SNB-19 > 100 µM | MDA-MB-231 > 100 µM | MDA-MB-435 > 100 µM | BT-549 65.9 µM | OVCAR-4 > 100 µM

Cc1cc(NS(=O)(=O)c2ccc(NC(=O)c3ccc4nc5ccccc5c(Nc5ccc(S(=O)(=O)N=C(N)N)cc5)c4c3)cc2)no1
inactive: SF-295 16.9 µM | HL-60 17.5 µM | UACC-62 21.7 µM | EKVX 16.4 µM | ACHN 13.6 µM | HOP-62 17.5 µM | NCI-H522 17.1 µM | SNB-75 18.6 µM | RXF 393 15.3 µM | MCF7 19.8 µM | HCC 2998 16 µM | MDA-N 19.5 µM | SF-539 20.8 µM | LOX IMVI 9.46 µM | NCI-H226 14.2 µM | SNB-19 29 µM | MDA-MB-231 14.5 µM | MDA-MB-435 19.9 µM | BT-549 20.6 µM | OVCAR-4 14.3 µM

COc1cccc2ccc3c(c12)C(=O)OC31CCc2c(C)cccc21 (stereo not given)
active: MCF7 0.018 µM
inactive: SF-295 9.95 µM | HL-60 8.59 µM | UACC-62 11.6 µM | EKVX 27.1 µM | ACHN 8.04 µM | HOP-62 18.5 µM | NCI-H522 21.4 µM | SNB-75 13.4 µM | RXF 393 8.97 µM | HCC 2998 26.7 µM | MDA-N 7.55 µM | SF-539 31.3 µM | LOX IMVI 14.2 µM | NCI-H226 12 µM | SNB-19 11.4 µM | MDA-MB-231 36.1 µM | MDA-MB-435 20.4 µM | BT-549 > 100 µM | OVCAR-4 15.2 µM

Cc1cc(N(CCC#N)CCC#N)ccc1/C=N/NC(=O)c1ccccc1
inactive: SF-295 12.9 µM | HL-60 4.17 µM | UACC-62 10.4 µM | EKVX 48.9 µM | ACHN 85.3 µM | HOP-62 31.8 µM | NCI-H522 8.34 µM | SNB-75 28.9 µM | RXF 393 28.4 µM | MCF7 7.82 µM | HCC 2998 9.2 µM | MDA-N 2.86 µM | SF-539 7.76 µM | LOX IMVI 8.02 µM | NCI-H226 20.2 µM | SNB-19 > 59.2 µM | MDA-MB-231 15 µM | MDA-MB-435 2.42 µM | BT-549 42.7 µM | OVCAR-4 65.8 µM

COC(=O)/C(=N\NC(=S)NN)C(C(=O)OC)C(=O)C(=O)Nc1cccc(C(F)(F)F)c1 (stereo not given)
inactive: SF-295 > 100 µM | HL-60 > 100 µM | UACC-62 > 100 µM | EKVX > 100 µM | ACHN > 100 µM | HOP-62 > 100 µM | NCI-H522 > 100 µM | SNB-75 > 100 µM | RXF 393 > 100 µM | MCF7 > 100 µM | HCC 2998 > 100 µM | MDA-N > 100 µM | SF-539 > 100 µM | LOX IMVI > 100 µM | NCI-H226 > 100 µM | SNB-19 > 100 µM | MDA-MB-231 > 100 µM | MDA-MB-435 > 100 µM | BT-549 > 100 µM | OVCAR-4 > 100 µM

O=C(Cc1ccccc1F)NC1=C(Cl)C(=O)c2ccccc2C1=O
inactive: SF-295 2.85 µM | EKVX 3.02 µM | HOP-62 5.48 µM | MCF7 3.74 µM | HCC 2998 3.48 µM | MDA-N 2.78 µM | LOX IMVI 1.75 µM | NCI-H226 1.74 µM | SNB-19 2.84 µM | MDA-MB-231 2.69 µM | MDA-MB-435 2.77 µM | BT-549 1.36 µM
active: HL-60 0.31 µM | UACC-62 0.481 µM | ACHN 0.543 µM | NCI-H522 0.29 µM | SNB-75 0.655 µM | RXF 393 0.249 µM | SF-539 0.333 µM | OVCAR-4 0.659 µM

Cc1cc(O)c2c(c1O)C(=O)c1cccc(O)c1C2=O [ISLANDICIN]
inactive: SF-295 > 100 µM | HL-60 60.8 µM | UACC-62 > 100 µM | EKVX > 100 µM | ACHN > 100 µM | HOP-62 > 100 µM | NCI-H522 47.8 µM | SNB-75 43.1 µM | RXF 393 > 100 µM | MCF7 > 100 µM | HCC 2998 > 100 µM | MDA-N > 100 µM | SF-539 > 100 µM | LOX IMVI > 100 µM | NCI-H226 > 100 µM | SNB-19 > 100 µM | MDA-MB-231 > 100 µM | MDA-MB-435 > 100 µM | BT-549 > 100 µM | OVCAR-4 > 100 µM

COc1cc2ccc(=O)oc2cc1O [SCOPOLETIN]
inactive: SF-295 19.7 µM | HL-60 34.8 µM | UACC-62 71.3 µM | EKVX 57.5 µM | ACHN > 100 µM | HOP-62 134 µM | NCI-H522 67.8 µM | SNB-75 50.8 µM | RXF 393 128 µM | MCF7 118 µM | HCC 2998 98.4 µM | MDA-N > 100 µM | SF-539 53.3 µM | LOX IMVI 61.9 µM | NCI-H226 86.3 µM | SNB-19 44 µM | MDA-MB-231 > 100 µM | MDA-MB-435 > 100 µM | BT-549 > 100 µM | OVCAR-4 101 µM
